# Data published in patent US6924311B2, “Methods for affecting various diseases utilizing LXR compounds” (X-Ceptor Therapeutics, Inc., priority 2001, dated 2005).
# Legend:
# [1] = system: lipoprotein lipase (LPL) mRNA; assay: Liver lipoprotein lipase (LPL) mRNA by quantitative PCR in treated mice; assay type: in vivo; conditions: 10 mg/kg daily oral; for LPL mRNA induction: day 7
# Description: To decipher the physiological roles of LXRα and LXRβ mice, seven different lines of mice encompassing four unique LXR genotypes (LXRα+/+, LXRβ+/+=wildtype; LXRα−/−, LXRβ+/+=LXRα−/−; LXRα+/+, LXRβ−/−=LXRβ−/−; LXRα−/−, LXRβ−/−=LXRαβ−/−) were studied. Genetic knockouts of LXRα( LXRα−/−) were generated in two independent mouse strain backgrounds (C57BL/6 and A129). Genetic knockouts of LXRβ (LXRβ−/−) and the double knockout of LXRα and LXRβ (LXRαβ−/−) were generated in a mixed genetic background (C57BL/6×A129). The three appropriate wildtype (LXRα+/+, LXRβ+/+) mouse lines were used as controls. Mice from each line were treated for seven days with 10 mg compound/kg body weight of the LXR agonist Compound 1: N-(2,2,2-trifluoroethyl)-N-[4-(2,2,2- trifluoro-1-hydroxy-1-trifluoromethylethyl)-phenyl]-benzene sulfonamide. […] Compound 1 was administered by daily oral gavage in a sesame oil/ethanol vehicle via a 1-cc syringe fitted with a 20G disposable feeding needle. Compound was solvated in ethanol (5% final volume) and brought up to final volume with sesame oil (Sigma, St. Louis, Mo.).
# CYP7a mRNA = assay: Liver CYP7a mRNA by quantitative PCR in treated mice; assay type: in vivo; conditions: for CYP7a mRNA induction: daily oral 7 days
# Description: The CYP7a gene encodes cholesterol 7α-hydroxylase, the rate-limiting enzyme in the catabolic conversion of cholesterol to bile acids. Increases in CYP7a activity stimulate the conversion of cholesterol to bile acids and may reduce plasma cholesterol levels by depleting hepatocytes of cholesterol. Intracellular cholesterol depletion should stimulate the uptake of LDL particles from the plasma by liver hepatocytes. To determine the contribution of LXRα and LXRβ to the induction of CYP7a by LXR agonists, Compound 1 was administered for seven days by daily oral gavage in a sesame oil/ethanol vehicle via a 1-cc syringe fitted with a 20G disposable feeding needle. Compound was solvated in ethanol (5% final volume) and brought up to final volume with sesame oil (Sigma, St. Louis, Mo.). Three hours after the final dose (day 7) animals were sacrificed, livers were harvested, and total liver RNA was isolated using RNeasy kits (QIAGEN Inc.) according to the supplier's total RNA isolation procedure. The RNA samples were further treated with deoxyribonuclease 1 to eliminate contaminating genomic DNA. CYP7a mRNA levels were than analyzed by real-time based quantitative PCR using Perkin Elmer ABI Prism 7700 and Sequence Detection System software (Perkin Elmer). […] As expected no induction is observed in LXRαβ−/− mice.
# [2] = Plasma glucose levels in db/db mice; assay type: in vivo; conditions: 50 mg/kg daily oral gavage, 14 days
# Description: Cardiovascular disease is one of the major complications of type II diabetes. […] A mouse model of type II diabetes is the diabetic (db/db) mouse. [See Coleman, D. L. (1978), Obese and Diabetes: Two Mutant Genes Causing Diabetes-Obesity Syndrom In Mice. Diabetologia 14, 141-148; and Hong Chen, Olga […], Louis […], Elizabeth A. Woolf, Xun Weng, Stephen J. Ellis, […], Janice Culpepper, Karen J. More, Roger E. Breitbart, Geoffrey M. Duyk, Robert I. and Jay P. Morgenstern (1996), Evidence That The Diabetes Gene Encodes The Leptin Receptor: Identification Of A Mutation In The Leptin Receptor In db/db Mice, Cell 84, 491-495.] […] To examine the ability of LXR agonists to modulate blood glucose levels, db/db mice were treated for 14 days with 50 mg compound/kg body weight of the LXR agonist Compound 1. As a positive control animals were also treated with 30 mg compound/kg body weight of the retinoid X receptor (RXR) agonist. […] Both compounds were administered by daily oral gavage in a sesame oil/ethanol vehicle via a 1-cc syringe fitted with a 20G disposable feeding needle. […] Plasma glucose levels were determined using a colorimetric enzymatic assay adapted to a 96 well plate format (Sigma, St. Louis, Mo.). […] The absorbance of the samples and standards were read using a Multiskan plate reader.
# LXRβ = target: T1, LXRβ (Homo sapiens, UniProt P55055); conditions: stated as considered, no test described; cited from earlier work
# T1 sequence (P55055 1-460): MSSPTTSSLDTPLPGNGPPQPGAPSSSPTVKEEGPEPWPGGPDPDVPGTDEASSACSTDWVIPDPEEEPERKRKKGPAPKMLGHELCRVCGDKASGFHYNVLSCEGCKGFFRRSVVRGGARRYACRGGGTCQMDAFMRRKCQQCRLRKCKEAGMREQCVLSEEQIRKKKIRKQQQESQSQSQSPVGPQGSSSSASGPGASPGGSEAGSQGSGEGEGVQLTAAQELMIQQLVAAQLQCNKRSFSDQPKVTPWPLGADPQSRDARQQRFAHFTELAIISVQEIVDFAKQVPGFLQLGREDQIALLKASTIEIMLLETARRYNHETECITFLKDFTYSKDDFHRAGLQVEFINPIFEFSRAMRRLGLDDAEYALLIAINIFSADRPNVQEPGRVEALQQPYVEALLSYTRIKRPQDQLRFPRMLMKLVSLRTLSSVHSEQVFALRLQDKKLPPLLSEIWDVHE
compound,measurement,setting,value
"O=S(=O)(c1ccccc1)N(CC(F)(F)F)c1ccc(C(O)(C(F)(F)F)C(F)(F)F)cc1 [Compound 1, N-(2,2,2-trifluoroethyl)-N-[4-(2,2,2-trifluoro-1-hydroxy-1-trifluoromethylethyl)-phenyl]-benzene sulfonamide]",LPL mRNA induction,[1]; LXRα−/− mice (C57BL/6 and A129),completely blocks the pan-agonist induction of LPL
same,LPL mRNA induction,[1]; LXRβ−/− mice,little or no effect
same,fold induction at 10 mg/kg,"[1]; Mus musculus, 168 h, wildtype mice, day 7, read-out: LPL mRNA fold induction (+Compound 1/vehicle)",3 to 9
same,CYP7a mRNA induction,CYP7a mRNA; LXRαβ−/− mice,no induction
same,CYP7a mRNA induction,CYP7a mRNA; LXRα−/− mice,can induce transcription of the CYP7a gene
same,CYP7a induction level relative to wildtype agonist-treated mice,CYP7a mRNA; LXRβ alone (LXRα−/− mice),20%-50%
same,CYP7a mRNA induction,CYP7a mRNA; LXRβ−/− mice,can induce transcription of the CYP7a gene
same,CYP7a mRNA induction,CYP7a mRNA; wildtype mice,can induce transcription of the CYP7a gene
same,effect on plasma glucose (hyperglycemia),[2],significantly reduces hyperglycemia in db/db mice
same,binding and activation of LXRβ,LXRβ,binds and activates both LXRα and LXRβ with similar potency and efficacy
